Target: T1, DPP-4 (Homo sapiens, UniProt P27487)
T1 construct: purchased MAK203
Experiment: in vitro DPP-4 inhibitory activity assay (DPP-4 inhibitor screening kit MAK203)
Format: biochemical
Conditions: fluorescence assay kit, 37°C; IC50 from linear equation of inhibition % vs concentration
Description: The in vitro DPP-4 inhibitory activity of the prepared compounds was evaluated using the DPP-4 inhibitor screening kit (MAK203) according to the test protocol with slight modifications ([17]). […] Substrate solutions (25 μL) were added to each well, covered, and incubated at 37°C for 30 minutes. […] The following formula was used to calculate the percent inhibition (Equation 1):
Inhibition %= (initial activity-inhibitor activity)/initial activity×100 %
The IC50 value was calculated from y = a + bx (linear equation) obtained from the relation of the inhibition activity (%) (y) and the concentration (x) of the substance being measured.

T1 sequence (P27487 whole entry): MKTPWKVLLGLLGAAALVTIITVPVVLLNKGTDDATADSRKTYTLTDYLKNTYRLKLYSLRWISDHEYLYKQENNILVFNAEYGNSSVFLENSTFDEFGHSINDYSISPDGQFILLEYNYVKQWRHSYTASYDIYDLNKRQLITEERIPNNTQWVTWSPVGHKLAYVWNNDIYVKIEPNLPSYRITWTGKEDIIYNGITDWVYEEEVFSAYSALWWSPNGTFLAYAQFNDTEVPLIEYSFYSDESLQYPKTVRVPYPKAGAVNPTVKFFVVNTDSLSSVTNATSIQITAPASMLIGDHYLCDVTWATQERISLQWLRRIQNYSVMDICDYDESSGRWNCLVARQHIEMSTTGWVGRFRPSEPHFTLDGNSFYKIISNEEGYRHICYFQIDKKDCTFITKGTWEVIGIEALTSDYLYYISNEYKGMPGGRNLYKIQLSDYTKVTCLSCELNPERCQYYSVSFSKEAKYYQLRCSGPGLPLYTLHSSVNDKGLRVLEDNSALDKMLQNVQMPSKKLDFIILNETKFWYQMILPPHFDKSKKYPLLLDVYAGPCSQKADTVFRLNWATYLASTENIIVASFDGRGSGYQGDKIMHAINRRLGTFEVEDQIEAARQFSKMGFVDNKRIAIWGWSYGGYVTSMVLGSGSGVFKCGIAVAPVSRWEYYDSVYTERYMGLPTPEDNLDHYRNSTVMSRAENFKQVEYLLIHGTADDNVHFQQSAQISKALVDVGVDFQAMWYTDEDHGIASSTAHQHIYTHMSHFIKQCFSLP

`CN(C)Cc1nc2ccccc2c(=O)n1Cc1ccccc1C#N` [5a, 2-({2-[Dimethylaminomethyl]quinazolin-4-one-3-yl}methyl)benzonitrile] and `CCN(CC)Cc1nc2ccccc2c(=O)n1Cc1ccccc1C#N` [5b, 2-({2-[Diethylaminomethyl]quinazolin-4-one-3-yl}methyl)benzonitrile] are within 1.5-fold of each other in IC50: 4.92 µM for the first, 5.29 µM for the second.

First: CCCCN(CCCC)Cc1nc2ccccc2c(=O)n1Cc1ccccc1C#N [5c, 2-({2-[Dibutylaminomethyl]quinazolin-4-one-3-yl}methyl)benzonitrile]
Second: N#Cc1ccccc1Cn1c(CN2CCCC2)nc2ccccc2c1=O [5e, 2-({2-[Pyrrolidinomethyl]quinazolin-4-one-3-yl}methyl)benzonitrile]
The IC50 of the first is 2.2-fold higher: 6.78 µM for the first, 3.07 µM for the second.

First: N#Cc1ccccc1Cn1c(CN2CCOCC2)nc2ccccc2c1=O [5d, 2-({2-[Morpholinomethyl]quinazolin-4-one-3-yl}methyl)benzonitrile]
Second: CN1CCN(Cc2nc3ccccc3c(=O)n2Cc2ccccc2C#N)CC1 [5f, 2-({2-[N-methylpiperazinomethyl]quinazolin-4-one-3-yl}methyl)benzonitrile]
The IC50 of the first is 2.4-fold lower: 1.46 µM for the first, 3.56 µM for the second.

Reference: publication PMC12296639, “Synthesis and Bioactivity Investigation of Novel 2-({2-[(Dialkylamino) Methyl] Quinazolin-4-one-3-yl} Methyl) Benzonitrile Derivatives as Dipeptidyl Peptidase-4 Inhibitory Agent” (Iranian Journal of Pharmaceutical Research : IJPR, 2025)
